Laboratory results taken from ChEMBL document CHEMBL1144490, “Apoptosis induction and modulation of P-glycoprotein mediated multidrug resistance by new macrocyclic lathyrane-type diterpenoids” (Bioorg Med Chem, 2007).
≈ marks a conversion by molar mass, not a printed value.

Key:
L5178Y [1] = test: Induction of apoptosis in human MDR1 gene transfected mouse L5178 Y cells assessed as necrosis at 75 ug/mL after 40 mins; assay type: functional
[2] = target: T1, ATP-dependent translocase ABCB1 (Homo sapiens, UniProt P08183); test: Inhibition of P-gp mediated efflux-pump activity in human MDR1 gene transfected mouse L5178 Y cells at 4 ug/mL by rhodamine 123 accumulation test; assay type: cell-based
T1 sequence (P08183 whole entry): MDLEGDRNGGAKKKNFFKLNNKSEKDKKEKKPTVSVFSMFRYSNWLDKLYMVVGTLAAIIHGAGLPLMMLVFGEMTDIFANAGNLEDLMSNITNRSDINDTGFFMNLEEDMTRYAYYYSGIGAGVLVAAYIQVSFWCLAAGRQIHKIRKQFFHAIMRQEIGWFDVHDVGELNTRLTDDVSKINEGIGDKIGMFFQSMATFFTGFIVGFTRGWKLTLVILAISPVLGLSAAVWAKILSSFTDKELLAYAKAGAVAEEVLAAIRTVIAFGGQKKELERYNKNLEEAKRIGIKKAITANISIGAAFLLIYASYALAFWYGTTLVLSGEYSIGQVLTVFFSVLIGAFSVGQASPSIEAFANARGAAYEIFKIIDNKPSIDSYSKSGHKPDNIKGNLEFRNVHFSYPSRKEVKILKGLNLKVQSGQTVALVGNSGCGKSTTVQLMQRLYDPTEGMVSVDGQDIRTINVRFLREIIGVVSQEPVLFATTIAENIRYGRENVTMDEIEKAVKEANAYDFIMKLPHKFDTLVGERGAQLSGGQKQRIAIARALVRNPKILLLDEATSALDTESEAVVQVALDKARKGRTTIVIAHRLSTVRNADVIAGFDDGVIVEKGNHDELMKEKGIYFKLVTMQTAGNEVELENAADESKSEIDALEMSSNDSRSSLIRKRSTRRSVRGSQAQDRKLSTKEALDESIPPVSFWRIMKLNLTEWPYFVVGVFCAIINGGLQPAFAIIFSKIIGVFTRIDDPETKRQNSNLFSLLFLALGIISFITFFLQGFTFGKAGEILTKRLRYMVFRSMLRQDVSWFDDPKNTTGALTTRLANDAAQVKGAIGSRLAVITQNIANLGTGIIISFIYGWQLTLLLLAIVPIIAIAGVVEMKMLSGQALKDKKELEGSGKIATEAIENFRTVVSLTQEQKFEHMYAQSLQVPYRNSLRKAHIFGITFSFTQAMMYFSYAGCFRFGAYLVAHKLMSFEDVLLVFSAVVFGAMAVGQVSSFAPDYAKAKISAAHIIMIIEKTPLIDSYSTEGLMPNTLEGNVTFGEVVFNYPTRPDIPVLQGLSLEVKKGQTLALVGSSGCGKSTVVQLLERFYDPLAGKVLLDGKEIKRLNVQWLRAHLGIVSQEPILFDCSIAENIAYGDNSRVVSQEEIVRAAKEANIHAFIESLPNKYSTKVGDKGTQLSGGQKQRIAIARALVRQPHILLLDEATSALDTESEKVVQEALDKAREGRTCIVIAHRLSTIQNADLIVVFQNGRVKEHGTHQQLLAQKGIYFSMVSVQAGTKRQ

L5178Y [3] = test: Induction of apoptosis in human MDR1 gene transfected mouse L5178 Y cells assessed as total apoptosis at 75 ug/mL after 40 mins; assay type: functional
L5178Y [4] = test: Induction of apoptosis in human MDR1 gene transfected mouse L5178 Y cells assessed as early apoptosis at 7 ug/mL after 40 mins; assay type: functional
L5178Y [5] = test: Induction of apoptosis in human MDR1 gene transfected mouse L5178 Y cells assessed as necrosis at 7 ug/mL after 40 mins; assay type: functional
L5178Y [6] = test: Induction of apoptosis in human MDR1 gene transfected mouse L5178 Y cells assessed as early apoptosis at 75 ug/mL after 40 mins; assay type: functional
L5178Y [7] = test: Induction of apoptosis in human MDR1 gene transfected mouse L5178 Y cells assessed as total apoptosis at 7 ug/mL after 40 mins; assay type: functional
[8] = target: T1, ATP-dependent translocase ABCB1; test: Inhibition of P-gp mediated efflux-pump activity in human MDR1 gene transfected mouse L5178 Y cells at 40 ug/mL by rhodamine 123 accumulation test; assay type: cell-based
[9] = Antiproliferative activity against human MDR1 gene transfected mouse L5178 Y cells after 72 hrs; assay type: functional; settings: L5178Y, read-out: ID50 (the source's name)
L5178Y [10] = test: Induction of apoptosis in human MDR1 gene transfected mouse L5178 Y cells assessed as necrosis at 50 ug/mL after 40 mins; assay type: functional
L5178Y [11] = test: Induction of apoptosis in human MDR1 gene transfected mouse L5178 Y cells assessed as total apoptosis at 50 ug/mL after 40 mins; assay type: functional
L5178Y [12] = test: Induction of apoptosis in human MDR1 gene transfected mouse L5178 Y cells assessed as early apoptosis at 5 ug/mL after 40 mins; assay type: functional
L5178Y [13] = test: Induction of apoptosis in human MDR1 gene transfected mouse L5178 Y cells assessed as necrosis at 5 ug/mL after 40 mins; assay type: functional
L5178Y [14] = test: Induction of apoptosis in human MDR1 gene transfected mouse L5178 Y cells assessed as total apoptosis at 5 ug/mL after 40 mins; assay type: functional
L5178Y [15] = test: Induction of apoptosis in human MDR1 gene transfected mouse L5178 Y cells assessed as early apoptosis at 50 ug/mL after 40 mins; assay type: functional

C/C1=C\[C@@H]2[C@H](CC[C@@]3(C)O[C@@H]3[C@H]3[C@@H](O)[C@@H](C)C[C@]3(OC(=O)/C=C/c3ccccc3)C1=O)C2(C)C [JOLKINOL B]
Activity (L5178Y [1]): 0.41% | Fluorescence intensity [2]: 449.2 | Activity (L5178Y [3]): 38.83% | Activity (L5178Y [4]): 6.91% | Activity (L5178Y [5]): 1.16% | Activity (L5178Y [6]): 4.06% | Activity (L5178Y [7]): 27% | Fluorescence intensity [8]: 649.3

C/C1=C\[C@@H]2[C@H](CC[C@@]3(C)O[C@@H]3C[C@@H](O)[C@@H](C)CC(OC(=O)c3ccccc3)C1=O)C2(C)C (stereo partly specified) [LATILAGASCENES F]
Fluorescence intensity [2]: 212.6 | Fluorescence intensity [8]: 1029.4

COc1cccc2c1C(=O)c1c(O)c3c(c(O)c1C2=O)C[C@@](O)(C(=O)CO)C[C@@H]3O[C@H]1C[C@H](N)[C@H](O)[C@H](C)O1 [DOXORUBICIN]
IC50 [9]: 0.35 µg/mL (≈ 0.644 µM)

C/C1=C\[C@@H]2[C@H](CC[C@@]3(C)O[C@@H]3C[C@@H](O)[C@@H](CO)C[C@H](OC(=O)/C=C/c3ccccc3)C1=O)C2(C)C [LATILAGASCENES B]
Activity (L5178Y [1]): 1.82% | Activity (L5178Y [3]): 96.31% | Activity (L5178Y [4]): 5.87% | Activity (L5178Y [5]): 0.79% | Activity (L5178Y [6]): 1.38% | Activity (L5178Y [7]): 18.96% | IC50 [9]: 4.58 µg/mL (≈ 9.49 µM)

CC(=O)OC[C@H]1C[C@H](OC(=O)/C=C/c2ccccc2)C(=O)/C(C)=C/[C@@H]2[C@H](CC[C@@]3(C)O[C@@H]3C[C@H]1OC(C)=O)C2(C)C [LATILAGASCENES C]
Activity (L5178Y [1]): 3.93% | Activity (L5178Y [3]): 41.31% | Activity (L5178Y [4]): 7.8% | Activity (L5178Y [5]): 0.69% | Activity (L5178Y [6]): 1.04% | Activity (L5178Y [7]): 21.9%

C/C1=C\[C@@H]2[C@H](CC[C@@]3(C)O[C@@H]3C[C@@H](O)[C@@H](COC(=O)c3ccccc3)C[C@H](OC(=O)/C=C/c3ccccc3)C1=O)C2(C)C [LATILAGASCENES D]
Activity (L5178Y [1]): 6.83% | Fluorescence intensity [2]: 685.9 | Activity (L5178Y [3]): 67.97% | Activity (L5178Y [4]): 12.7% | Activity (L5178Y [5]): 1.54% | Activity (L5178Y [6]): 2.96% | Activity (L5178Y [7]): 34.7% | Fluorescence intensity [8]: 714

CC1(C)[C@@H]2/C=C(\CO)C(=O)[C@@H](OC(=O)/C=C/c3ccccc3)C[C@H](COC(=O)c3ccccc3)[C@H](O)C[C@H]3O[C@]3(C)CC[C@@H]21 [LATILAGASCENES E]
Fluorescence intensity [2]: 882.2 | Fluorescence intensity [8]: 810.8

CC(=O)OC[C@H]1C[C@H](OC(=O)/C=C/c2ccccc2)C(=O)/C(C)=C/[C@@H]2[C@H](CC[C@@]3(C)O[C@@H]3C[C@H]1O)C2(C)C [LATILAGASCENES A]
Activity (L5178Y [1]): 2.16% | Activity (L5178Y [3]): 55.24% | Activity (L5178Y [4]): 7.79% | Activity (L5178Y [5]): 0.85% | Activity (L5178Y [6]): 33.88% | Activity (L5178Y [7]): 22.7%

c1ccc2c(c1)Nc1c(ccc3ccccc13)S2
Activity (L5178Y [10]): 1.81% | Activity (L5178Y [11]): 98% | Activity (L5178Y [12]): 1.72% | Activity (L5178Y [13]): 16.3% | Activity (L5178Y [14]): 65.01% | Activity (L5178Y [15]): 0.02%
